# Paper PMC6781285, “Brain Delivery of a Potent Opioid Receptor Agonist, Biphalin during Ischemic Stroke: Role of Organic Anion Transporting Polypeptide (OATP)” (Pharmaceutics, 2019)
# How the values were obtained:
# [1] = test system: iPSC-BMECs; assay: Biphalin uptake studies in iPSC-BMECs; format: in vitro ADME, human
# Procedure: (§1) We measured the level of biphalin in cell lysate (uptake studies) and transport buffer (transport studies) while using our developed, highly sensitive LC-MS/MS method. Briefly, biphalin was extracted from the samples by the addition of acetonitrile (1:2) containing 10 ng/mL internal standard, [D-Ala^2] Leucine Enkephalin (Sigma-Aldrich, St. Louis, MO, USA). After 1-min. vortexing, the mixture is centrifuged at 10,000 rpm for 10 min. After that the supernatant is mixed with an equivalent volume of LCMS water and then loaded into the insert vials ready for the analysis. The UHPLC-MS/MS system equipped with AB SCIEX QTRAP® 5500 mass spectrometer (Foster City, CA, USA) attached to a Nexera ultra high performance liquid chromatography (UHPLC) system from Shimadzu Corporation (Columbia, MD, USA) was used. Data acquisition and quantification were performed by Analyst software 1.7.0.
# (§2) Chromatographic separation was then performed with a Kinetex C18 column (50 × 2.1mm, 1.8 μm, Phenomenex, Torrance, CA, USA) while using mobile phases, 0.1% formic acid in water and 0.1% formic acid in acetonitrile. The gradients of acetonitrile (10% at time zero, 31% at 2.5 min., 90% at 2.6 min. up to 3.6, followed by 10% at 3.7 min. up to 4.5 min.) were used to elute biphalin at a flow rate of 0.4 mL/min. Column temperature was maintained at 45 °C. The retention time of biphalin was ∼1.8 min. while the retention time for the internal standard (IS) was ∼2.2 min. Multiple reaction monitoring was conducted in […], and the transitions for biphalin and internal standard were 455.2 → 136.2 m/z and 570.3 → 120.3 m/z, respectively. The collision energy for biphalin and IS was 40 and 45 volts, respectively.
# Differentiated BMECs (iPSC-BMECs) are seeded in 12-well plates, incubated with either biphalin (10 µg/mL) (control) or pre-incubated with OATP1 substrate, estrone-3-sulfate (E3S) (10 µM) for 10 min., followed by co-incubation of E3S and 10 µg/mL biphalin in the 37 °C incubator for 20 min. The incubation time, 20 min. was selected to get detectable amount of biphalin in the cell extract. Next, the cells are washed two times with ice-cold phosphate buffered saline (PBS, pH 7.4). The cells were solubilized with 100 µL radioimmunoprecipitation assay (RIPA) Buffer (Thermo Fisher, Waltham, MA, USA) with protease and phosphatase inhibitor cocktail (Thermo Fisher, Waltham, MA, USA), and the amount of biphalin uptake was determined by using the above LCMS method. Protein content was calculated with a detergent-compatible bicinchoninic acid (BCA) assay (Pierce Chemical, Rockford, IL, USA). Biphalin uptake was normalized while using protein content and then presented as biphalin (ng) per µg of protein.
# In vitro stroke conditions were simulated by exposing the cells to oxygen-glucose deprivation (OGD) conditions. Briefly, iPSC-BMECs were rinsed twice with Dulbecco’s Modified Eagle medium Solution (DMEM). The cells were incubated with DMEM media (without glucose) plus 1% of PDS [33]. Hypoxia (1% oxygen) was induced by placing the cells in a hypoxic polymer glove box (Coy Laboratories, Grayslake, MI, USA), which was infused with 95% N2 and 5% CO2 at 37 °C. Cells were exposed to OGD condition for 1 h, 2 h, and 6 h, followed by reperfusion with OGD media with glucose and sodium pyruvate. For reperfusion studies, the cells were incubated in the CO2 incubator for pre-determined timepoints, 30 min., 1 h, 2 h, and 6 h.
# [2] = cited from earlier work
# Text: Our lab has communicated several studies that reported the neuroprotective potential of biphalin, an ultra-potent, non-selective, opioid agonist, in models of both permanent and transient ischemic stroke.
# [3] = test system: OATP1; assay: Biphalin transcellular transport across iPSC-BMECs monolayer (transwell in vitro BBB model); format: in vitro ADME, human; settings: human; normoxic; E3S pre-incubated 30 min, both luminal and abluminal sides, then biphalin 10 µg/mL plus E3S; A-B; corrected for FITC-dextran 4 kD; LC-MS/MS; mean ± SD, n = 4; read-out: net permeability coefficient (PC) of biphalin, apical to basolateral, with E3S (converted)
# Procedure: as §1, §2
# (§3) Transport studies were performed to determine the role of OATP1 on the blood-to-brain transport of biphalin. Confluent iPSC-BMECs, (one million cells/insert) were seeded to the apical side of a 12-well transwell insert (area 1.12 cm^2, polyester), which is pre-coated with 400 µg/mL collagen and 100 µg/mL fibronectin [35]. 10 µg/mL biphalin and an equivalent concentration of FITC-dextran (4kD) were added to the apical compartment. For studies using an inhibitor and OATP1 substrate, E3S was pre-incubated for 30 min., followed by incubation with biphalin and E3S [11]. E3S was added to both the luminal and abluminal sides to inhibit the transporters on both sides. The results were expressed as a net permeability coefficient (PC) after subtracting the PC of FITC-dextran from the PC of biphalin.
# (§4) In vitro stroke conditions were simulated by exposing the cells to oxygen-glucose deprivation (OGD) conditions. […] For reperfusion studies, the cells were incubated in the CO2 incubator for pre-determined timepoints, 30 min., 1 h, 2 h, and 6 h.
# [4] = test system: iPSC-BMECs monolayer; assay: as above; format: in vitro ADME, human
# Procedure: as §1, §2, §3, §4
structure (smiles),measurement,setting,value
C[C@@H](NC(=O)[C@@H](N)Cc1ccc(O)cc1)C(=O)NCC(=O)N[C@@H](Cc1ccccc1)C(=O)NNC(=O)[C@H](Cc1ccccc1)NC(=O)CNC(=O)[C@@H](C)NC(=O)[C@@H](N)Cc1ccc(O)cc1 [biphalin],biphalin uptake,"[1]; 2 h OGD + 6 h reperfusion, LC-MS/MS, mean ± SD, n = 4",2.5 ± 0.2 ng/µg
same,biphalin uptake,"[1]; 6 h OGD + 30 min reperfusion, LC-MS/MS, mean ± SD, n = 4",2 ± 0.25 ng/µg
same,biphalin uptake,[1]; 6 h OGD + 6 h reperfusion,decreased to the basal normoxic level
same,biphalin uptake,"[1]; after 1 h OGD, biphalin 10 µg/mL, 20 min, LC-MS/MS, mean ± SD, n = 4",1.31 ± 0.2 ng/µg
same,increase of biphalin uptake compared to normoxic conditions,"[1]; after 2 h OGD exposure (1% oxygen, no glucose), n = 4",2.8 fold
same,biphalin uptake,"[1]; after 2 h OGD, biphalin 10 µg/mL, 20 min, LC-MS/MS, mean ± SD, n = 4",1.89 ± 0.015 ng/µg
same,increase of biphalin uptake compared to normoxic conditions,"[1]; after 6 h OGD exposure (1% oxygen, no glucose), n = 4",2.4 fold
same,biphalin uptake,"[1]; after 6 h OGD, biphalin 10 µg/mL, 20 min, LC-MS/MS, mean ± SD, n = 4",1.64 ± 0.15 ng/µg
same,average reduction of biphalin uptake by E3S pre-incubation,"[1]; average over selected OGD and OGD-reperfusion timepoints (2 h OGD, 6 h OGD, 2 h OGD + 6 h R, 6 h OGD + 30 min R), n = 3",26.59 ± 8.01%
same,reduction of biphalin uptake by E3S,"[1]; normal (normoxic) conditions, E3S 10 µM",approximately 23%
same,biphalin uptake,"[1]; normoxic, without E3S, biphalin 10 µg/mL, 20 min, 37 °C, cell lysate (RIPA), LC-MS/MS, normalized to protein (BCA), mean ± SD, n = 4",0.49 ± 0.05 ng of biphalin per 1 ug of protein
same,biphalin uptake with E3S,"[1]; normoxic, E3S (OATP1 substrate) 10 µM pre-incubated 10 min, then co-incubated with biphalin 10 µg/mL 20 min, 37 °C, LC-MS/MS, mean ± SD, n = 4",0.37 ± 0.05 ng/ug protein
same,injected dose accumulated in the brain,[2],0.05%
same,Papp A→B at 10 µg/mL,[3],5.67 ×10⁻⁶ cm/s
same,average reduction of biphalin transport in the presence of E3S,"[4]; A-B, average over OGD and OGD-reperfusion timepoints, E3S pre-treated 30 min, n = 3",37.96 ± 12.51%
same,transport of biphalin from basolateral to apical side (B to A),"[4]; B-A, to determine the role of P-gp or other efflux mechanisms, data not shown",negligible
same,reduction of biphalin transport by E3S,"[4]; normal (normoxic) conditions, A-B, E3S pre-incubated 30 min",~40%
